Here are results for 5 compounds from ChEMBL document CHEMBL3774385, “Small molecule glycoconjugates with anticancer activity” (Eur J Med Chem, 2016).

Structures are written as SMILES. Activity calls are given as the source filed them. No cut-off for these calls is given here.

Tested on in one assay: not listed separately
The assay is described as follows: Binding affinity to Cu2+ assessed as compound-metal complex formation at compound to metal ratio of 1:0, 1:1, 2:1, 3:1, 4:1 and 5:1 after 30 mins by UV-visible spectrophotometry.
Conditions: not given
Turning to `CC(=O)OC[C@H]1O[C@@H](Sc2ccc(NC(=O)c3ccc4ccc(C)nc4c3O)cc2)[C@H](OC(C)=O)[C@@H](OC(C)=O)[C@@H]1OC(C)=O`, the outcome was Active.

Tested on in a further assay: not listed separately
The assay is described as follows: Binding affinity to Zn2+ assessed as compound-metal complex formation at compound to metal ratio of 1:0, 1:1, 2:1, 3:1, 4:1 and 5:1 after 30 mins by UV-visible spectrophotometry.
Conditions: not given
For the compound `CC(=O)OC[C@H]1O[C@@H](Sc2ccc(NC(=O)c3ccc4ccc(C)nc4c3O)cc2)[C@H](OC(C)=O)[C@@H](OC(C)=O)[C@@H]1OC(C)=O`, the result was Active.

In a further assay the test system is HCT-116. The assay is described as follows: Induction of apoptosis in p53 expressing human HCT116 cells assessed as caspase-3/7 activation at IC50 after 30 to 48 hrs by luminescence assay. Type of assay: functional, cell-based.
Conditions: not given
`CC(=O)OC[C@H]1O[C@@H](Sc2ccc(NC(=O)c3ccc4ccc(C)nc4c3O)cc2)[C@H](OC(C)=O)[C@@H](OC(C)=O)[C@@H]1OC(C)=O`: the outcome was inactive.

The next assay deals with Calf thymus DNA. The assay is described as follows: Binding affinity to calf thymus DNA assessed as hypochromism at 3 to 25 uM after 1.5 hrs by UV-visible spectrophotometry. Type of assay: nucleic-acid assay. Particulars: Bos taurus.
For the compound `CC(=O)OC[C@H]1O[C@@H](Sc2ccc(NC(=O)c3ccc4ccc(C)nc4c3O)cc2)[C@H](OC(C)=O)[C@@H](OC(C)=O)[C@@H]1OC(C)=O`, the Activity amounted to 10.7%.

A further assay deals with HCT-116. The assay is described as follows: Induction of apoptosis in p53 expressing human HCT116 cells assessed as early apoptotic cells at IC50 after 48 hrs by acridine orange/ethidium bromide staining-based epifluorescence microscopy. In kind it is functional, cell-based.
Conditions: not given
On to `CC(=O)OC[C@H]1O[C@@H](Sc2ccc(NC(=O)c3ccc4ccc(C)nc4c3O)cc2)[C@H](OC(C)=O)[C@@H](OC(C)=O)[C@@H]1OC(C)=O`, for which the result was Active.

A further assay deals with HCT-116. The assay is described as follows: Induction of apoptosis in p53 expressing human HCT116 cells assessed as late apoptotic cells at IC50 after 48 hrs by acridine orange/ethidium bromide staining-based epifluorescence microscopy. In kind it is functional, cell-based.
Conditions: not given
`CC(=O)OC[C@H]1O[C@@H](Sc2ccc(NC(=O)c3ccc4ccc(C)nc4c3O)cc2)[C@H](OC(C)=O)[C@@H](OC(C)=O)[C@@H]1OC(C)=O`: the result was Active.

Tested on in another assay: not listed separately
The assay is described as follows: Antiproliferative activity against p53 deficient human HCT116 cells after 96 hrs by MTS assay. Particulars: HCT-116, 96 h. In kind it is functional, cell-based. A general note: Tetrazolium assays rely on reduction of a dye to a coloured formazan, in cell work by metabolically active cells.
The compound `CC(=O)OC[C@H]1O[C@@H](SC(=O)c2ccc3ccc(C)nc3c2O)[C@H](OC(C)=O)[C@@H](OC(C)=O)[C@@H]1OC(C)=O` came in with an IC50 of over 25 µM.
Still for that read-out and setting: to `Cc1ccc2ccc(C(=O)O)c(O)c2n1` belongs over 750 µM; to `COc1cccc2c1C(=O)c1c(O)c3c(c(O)c1C2=O)C[C@@](O)(C(=O)CO)C[C@@H]3O[C@H]1C[C@H](N)[C@H](O)[C@H](C)O1` [DOXORUBICIN], 0.38 µM.
Still for that read-out and setting: to `Cc1ccc2c(O)c(C(=O)O)ccc2n1` belongs over 750 µM.
The same measure, in the same setting: the value for `CC(=O)OC[C@H]1O[C@@H](Sc2ccc(NC(=O)c3ccc4ccc(C)nc4c3O)cc2)[C@H](OC(C)=O)[C@@H](OC(C)=O)[C@@H]1OC(C)=O` was 10.7 µM.

Another assay concerns NHDF. The assay is described as follows: Cytotoxicity against human NHDF cells after 96 hrs by MTS assay.
Conditions: not given
Type of assay: cell-based.
`COc1cccc2c1C(=O)c1c(O)c3c(c(O)c1C2=O)C[C@@](O)(C(=O)CO)C[C@@H]3O[C@H]1C[C@H](N)[C@H](O)[C@H](C)O1` [DOXORUBICIN] showed an IC50 of 3.38 µM.
On the same count and under the same terms, to `CC(=O)OC[C@H]1O[C@@H](Sc2ccc(NC(=O)c3ccc4ccc(C)nc4c3O)cc2)[C@H](OC(C)=O)[C@@H](OC(C)=O)[C@@H]1OC(C)=O` belongs 12.4 µM.

Another assay concerns HCT-116. The assay is described as follows: Induction of apoptosis in p53 deficient human HCT116 cells assessed as caspase-3/7 activation at IC50 after 30 to 48 hrs by luminescence assay. In kind it is functional, cell-based.
Conditions: not given
For the compound `CC(=O)OC[C@H]1O[C@@H](Sc2ccc(NC(=O)c3ccc4ccc(C)nc4c3O)cc2)[C@H](OC(C)=O)[C@@H](OC(C)=O)[C@@H]1OC(C)=O`, the outcome was inactive.

Another assay has as its system HCT-116. The assay is described as follows: Induction of reactive oxygen species generation in p53 expressing human HCT116 cells at 2 times IC50 for 24 hrs by inverted fluorescent microscopy.
Conditions: not given
In kind it is functional, cell-based.
With `CC(=O)OC[C@H]1O[C@@H](Sc2ccc(NC(=O)c3ccc4ccc(C)nc4c3O)cc2)[C@H](OC(C)=O)[C@@H](OC(C)=O)[C@@H]1OC(C)=O`, the outcome was Active.

Tested on in the next assay: not listed separately
The assay is described as follows: Antiproliferative activity against p53 expressing human HCT116 cells after 96 hrs by MTS assay. Conditions: HCT-116, 96 h. Type of assay: functional, cell-based.
The compound `CC(=O)OC[C@H]1O[C@@H](SC(=O)c2ccc3ccc(C)nc3c2O)[C@H](OC(C)=O)[C@@H](OC(C)=O)[C@@H]1OC(C)=O` returned a concentration for half-maximal inhibition (IC50) of over 25 µM.
Same read-out and setting: the value for `Cc1ccc2ccc(C(=O)O)c(O)c2n1` was over 750 µM; that for `COc1cccc2c1C(=O)c1c(O)c3c(c(O)c1C2=O)C[C@@](O)(C(=O)CO)C[C@@H]3O[C@H]1C[C@H](N)[C@H](O)[C@H](C)O1` [DOXORUBICIN] was 0.34 µM; that for `Cc1ccc2c(O)c(C(=O)O)ccc2n1` was over 750 µM.
In turn, `CC(=O)OC[C@H]1O[C@@H](Sc2ccc(NC(=O)c3ccc4ccc(C)nc4c3O)cc2)[C@H](OC(C)=O)[C@@H](OC(C)=O)[C@@H]1OC(C)=O` had an IC50 of 12 µM.

As a reminder, the IC50 is the concentration that inhibits the measured activity by half.
